From patent US20170107207A1, “AMINOPYRAZOLONE DERIVATIVE” (DAIICHI SANKYO COMPANY, LIMITED, priority 2014, published 2017)

Tests used:
TIP48/TIP49 complex = target: T1, TIP48/TIP49 complex (Homo sapiens, UniProt Q9Y230+Q9Y265); assay: ATPase assay of TIP48/TIP49 complex (ADP-Glo); type: biochemical; conditions: concentration at which the ATPase activity was inhibited by 50%
T1 construct: made in house; host or cells: E. coli
Procedure, shortened: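 Recombinant human TIP48 and TIP49 expressed in E. coli (24.5 μg/mL final) were incubated 1.5 h at room temperature with compound (0.0007–200 μM, 2% DMSO) in Tris-HCl pH 7.5 buffer containing MgCl2 and ATP. ADP formed was detected by ADP-Glo luminescence; inhibition came from dose-response curves.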

[1] = tested on: human lymphoma cell line RAMOS cells; assay: Cell growth inhibition test using RAMOS cell, MTT assay; type: cell-based; conditions: 50% growth inhibition concentration
Procedure: A cell growth inhibition test was carried out by treating human lymphoma cell line RAMOS cells with a test compound for a given period and then counting the number of viable cells by MTT assay or CellTiter-Glo Luminescent Cell Viability Assay (manufactured by Promega Corp.; hereinafter, referred to as ATP assay).
RAMOS cells were suspended in a medium (RPMI1640 medium containing 10% fetal bovine serum). The cell suspension was inoculated at 5000 cells/150 μL/well to a 96-well multiwell plate. The test compound was dissolved in DMSO, and this solution was diluted with medium to prepare a sample solution (DMSO concentration: 1% or lower). Subsequently, test compound-free medium or the sample solution was added thereto at 50 μL/well. The MTT assay was carried out at the day of addition of the sample solution or the DMSO dilution to the cells and after culture at 37° C. for 3 days under 5% CO2 of the cells supplemented with the sample solution or the medium. The MTT assay was carried out as follows.
A 5 mg/mL solution of MTT (3-(4,5-dimethylthiazol-2-yl)-2,5-diphenyltetrazolium bromide, Sigma-Aldrich Corp., M-2128) was prepared using a phosphate buffered solution (Dulbecco's phosphate-buffered saline). This MTT solution was added at 20 μL/well to the plate. Then, the plate was incubated at 37° C. for 4 hours under 5% CO2. The plate was centrifuged at 1200 rpm for 5 minutes, and then, the culture supernatant was removed by suction using a dispenser. DMSO was added thereto at 150 μL/well to dissolve formed formazan. […] from each well was rendered uniform by the stirring of the plate using a plate mixer. The absorbance of each well was measured using a plate reader under conditions involving OD of 540 nm and reference of 660 nm.
The number of viable cells and absorbance (hereinafter, referred to as an OD value) have been confirmed to correlate with each other. Therefore, the rate of cell growth was calculated according to the following expression: Rate of cell growth (T/C %) of a test compound-supplemented well=100×[(B−C)/(A−C)] wherein A represents the OD value (final culture date) of a test compound-free well; B represents the OD value (final culture date) of a test compound-containing well; and C represents the OD value (day of cell inoculation) of a well at the start of contact of the cells with the test compound.
T/C % at each concentration of the test compound was determined. The concentration at which the test compound offered 50% growth rate was calculated as a 50% growth inhibition concentration (GI50) value from the growth rates at two points interpolating 50% and the concentrations, and is shown in Table 56.

T1 sequence (Q9Y230 whole entry): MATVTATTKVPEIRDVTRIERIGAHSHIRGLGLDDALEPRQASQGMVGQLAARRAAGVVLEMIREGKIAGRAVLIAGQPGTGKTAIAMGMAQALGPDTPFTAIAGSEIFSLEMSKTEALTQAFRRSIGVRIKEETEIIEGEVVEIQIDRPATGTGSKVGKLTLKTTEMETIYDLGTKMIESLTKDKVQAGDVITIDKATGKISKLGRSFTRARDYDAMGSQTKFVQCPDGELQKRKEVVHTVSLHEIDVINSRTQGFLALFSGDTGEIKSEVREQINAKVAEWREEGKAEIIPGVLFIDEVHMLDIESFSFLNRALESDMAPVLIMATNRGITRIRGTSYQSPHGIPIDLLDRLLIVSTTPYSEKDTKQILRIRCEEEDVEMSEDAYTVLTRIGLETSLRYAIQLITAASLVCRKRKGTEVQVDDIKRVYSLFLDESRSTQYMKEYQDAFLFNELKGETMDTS
T1 sequence (Q9Y265 whole entry): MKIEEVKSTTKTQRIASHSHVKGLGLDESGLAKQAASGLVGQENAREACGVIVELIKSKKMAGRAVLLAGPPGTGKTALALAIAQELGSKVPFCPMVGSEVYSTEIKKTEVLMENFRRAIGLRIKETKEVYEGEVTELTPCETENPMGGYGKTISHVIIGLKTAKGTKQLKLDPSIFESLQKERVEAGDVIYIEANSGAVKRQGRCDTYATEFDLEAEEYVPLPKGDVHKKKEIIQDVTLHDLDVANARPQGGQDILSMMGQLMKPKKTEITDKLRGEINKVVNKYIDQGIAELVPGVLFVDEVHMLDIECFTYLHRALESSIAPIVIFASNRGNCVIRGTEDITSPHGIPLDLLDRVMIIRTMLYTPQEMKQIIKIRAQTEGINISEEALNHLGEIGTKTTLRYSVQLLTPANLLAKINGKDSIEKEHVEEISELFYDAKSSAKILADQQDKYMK

Row | SMILES | IC50 (TIP48/TIP49 complex) [nM] | GI50 [1] [nM]
1 | CCOc1ccc(Cl)cc1C(=O)NCC(C)(C)CC(=O)Nc1c(CCCN(C)C)n(C)n(-c2ccccc2)c1=O [Example 63, 5-Chloro-N-[4-({5-[3-(dimethylamino)propyl]-1-methyl-3-oxo-2-phenyl-2,3-dihydro-1H-pyrazol-4-yl}amino)-2,2-dimethyl-4-oxobutyl]-2-ethoxybenzamide] | 29 | 100
2 | CCOc1ccc(Cl)cc1C(=O)NCC(C)(C)CC(=O)Nc1c(CCCCN(C)C)n(C)n(-c2ccccc2)c1=O [Example 88, 5-Chloro-N-[4-({5-[4-(dimethylamino)butyl]-1-methyl-3-oxo-2-phenyl-2,3-dihydro-1H-pyrazol-4-yl}amino)-2,2-dimethyl-4-oxobutyl]-2-ethoxybenzamide] | 33 | 61
3 | CCOc1ccc(Cl)cc1C(=O)NCC(C)(C)CC(=O)Nc1c(C)n(C)n(-c2ccccc2)c1=O [Example 93, 5-Chloro-N-{4-[(1,5-dimethyl-3-oxo-2-phenyl-2,3-dihydro-1H-pyrazol-4-yl)amino]-2,2-dimethyl-4-oxobutyl}-2-ethoxybenzamide] | 25 | 55
4 | Cc1c(NC(=O)CC(C)(C)CNC(=O)c2cc(Cl)ccc2OC(C)C)c(=O)n(-c2ccccc2)n1C [Example 94] | 87 | 73
5 | CCOc1ncc(Cl)cc1C(=O)NCC(C)(C)CC(=O)Nc1c(C)n(C)n(-c2ccccc2)c1=O [Example 95] | 59 | 180
6 | Cc1c(NC(=O)CC(C)(C)CNC(=O)c2cc(Cl)ccc2OC2CC2)c(=O)n(-c2ccccc2)n1C [Example 96] | 35 | 120
7 | Cc1c(NC(=O)CC(C)(O)CNC(=O)c2cc(Cl)c(F)cc2OC(C)C)c(=O)n(-c2ccccc2)n1C (stereo not drawn) [Example 97, 5-Chloro-N-{4-[(1,5-dimethyl-3-oxo-2-phenyl-2,3-dihydro-1H-pyrazol-4-yl)amino]-2-hydroxy-2-methyl-4-oxobutyl}-4-fluoro-2-isopropoxybenzamide] | 100 | 1000
8 | COc1ccc(Cl)cc1NC(=O)CC1(CC(=O)Nc2c(C)n(C)n(-c3ccccc3)c2=O)OCCO1 [Example 98, N-(5-Chloro-2-methoxyphenyl)-2-(2-{2-[(1,5-dimethyl-3-oxo-2-phenyl-2,3-dihydro-1H-pyrazol-4-yl)amino]-2-oxoethyl}-1,3-dioxolan-2-yl)acetamide] | 2200 | 9600
9 | CCC(C)(CC(=O)Nc1cc(Cl)ccc1OC)CC(=O)Nc1c(C)n(C)n(-c2ccccc2)c1=O (stereo not drawn) [Example 99, N-(5-Chloro-2-methoxyphenyl)-N′-(1,5-dimethyl-3-oxo-2-phenyl-2,3-dihydro-1H-pyrazol-4-yl)-3-ethyl-3-methylpentanediamide] | 260 | 400
10 | COc1ccc(Cl)cc1NC(=O)CC1(CC(=O)Nc2c(C)n(C)n(-c3ccccc3)c2=O)CCC1 [Example 100, N-(5-Chloro-2-methoxyphenyl)-2-(1-{2-[(1,5-dimethyl-3-oxo-2-phenyl-2,3-dihydro-1H-pyrazol-4-yl)amino]-2-oxoethyl}cyclobutyl)acetamide] | 95 | 860
11 | COc1ccc(Cl)cc1NC(=O)CC1(CC(=O)Nc2c(C)n(C)n(-c3ccccc3)c2=O)CC1 [Example 101, N-(5-Chloro-2-methoxyphenyl)-2-(1-{2-[(1,5-dimethyl-3-oxo-2-phenyl-2,3-dihydro-1H-pyrazol-4-yl)amino]-2-oxoethyl}cyclopropyl)acetamide] | 450 | 3200
12 | CCOc1ccc(Cl)cc1NC(=O)CC(C)(CC(=O)Nc1c(C)n(C)n(-c2ccccc2)c1=O)OC(C)=O (stereo not drawn) [Example 102, {1-[2-(5-Chloro-2-ethoxyaniline)-2-oxoethyl]-3-[(1,5-dimethyl-3-oxo-2-phenyl-2,3-dihydro-1H-pyrazol-4-yl)amino]-1-methyl-3-oxopropyl} acetate] | 150 | 780
13 | CCOc1ccc(Cl)cc1NC(=O)CC(C)(O)CC(=O)Nc1c(C)n(C)n(-c2ccccc2)c1=O (stereo not drawn) [Example 103, N-(5-Chloro-2-ethoxyphenyl)-N′-(1,5-dimethyl-3-oxo-2-phenyl-2,3-dihydro-1H-pyrazol-4-yl)-3-hydroxy-3-methylpentanediamide] | 170 | 1400
14 | COc1ccc(Cl)cc1NC(=O)CC(C)(CC(=O)Nc1c(C)n(C)n(-c2ccccc2)c1=O)OC (stereo not drawn) [Example 104, N-(5-Chloro-2-methoxyphenyl)-N′-(1,5-dimethyl-3-oxo-2-phenyl-2,3-dihydro-1H-pyrazol-4-yl)-3-methoxy-3-methylpentanediamide] | 250 | 1300
15 | Cc1c(NC(=O)CC(C)(C)CNC(=O)c2cc(Cl)cc3c2OC(C)C3)c(=O)n(-c2ccccc2)n1C (stereo not drawn) [Example 105, 5-Chloro-N-{4-[(1,5-dimethyl-3-oxo-2-phenyl-2,3-dihydro-1H-pyrazol-4-yl)amino]-2,2-dimethyl-4-oxobutyl}-2-methyl-2,3-dihydrobenzofuran-7-carboxamide] | 26 | 74
16 | Cc1c(NC(=O)CC(C)(C)CNC(=O)c2cc(Cl)cc3c2OCCC3)c(=O)n(-c2ccccc2)n1C [Example 106, 6-Chloro-N-{4-[(1,5-dimethyl-3-oxo-2-phenyl-2,3-dihydro-1H-pyrazol-4-yl)amino]-2,2-dimethyl-4-oxobutyl}chromane-8-carboxamide] | 35 | 100
17 | Cc1ccc2cc(Cl)cc(C(=O)NCC(C)(C)CC(=O)Nc3c(C)n(C)n(-c4ccccc4)c3=O)c2n1 [Example 107, 6-Chloro-N-{4-[(1,5-dimethyl-3-oxo-2-phenyl-2,3-dihydro-1H-pyrazol-4-yl)amino]-2,2-dimethyl-4-oxobutyl}-2-methylquinoline-8-carboxamide] | 66 | 190
18 | Cc1c(NC(=O)CC(C)(C)CNC(=O)c2cc(Cl)ccc2OC2COC2)c(=O)n(-c2ccccc2)n1C [Example 108, 5-Chloro-N-{4-[(1,5-dimethyl-3-oxo-2-phenyl-2,3-dihydro-1H-pyrazol-4-yl)amino]-2,2-dimethyl-4-oxobutyl}-2-(oxetan-3-yloxy)benzamide] | 190 | 740
19 | Cc1c(NC(=O)CC(C)(C)CNC(=O)c2cc(Cl)cc3c2OC(C)CN3)c(=O)n(-c2ccccc2)n1C (stereo not drawn) [Example 109] | 200 | 200
20 | Cc1c(NC(=O)CC(C)(C)CNC(=O)c2cc(Cl)cc3c2OC(C)CN3C)c(=O)n(-c2ccccc2)n1C (stereo not drawn) [Example 110, 6-Chloro-N-{4-[(1,5-dimethyl-3-oxo-2-phenyl-2,3-dihydro-1H-pyrazol-4-yl)amino]-2,2-dimethyl-4-oxobutyl}-2,4-dimethyl-2,3-dihydro-1,4-benzoxazine-8-carboxamide] | 33 | 120
21 | CCc1nc2c(C(=O)NCC(C)(C)CC(=O)Nc3c(C)n(C)n(-c4ccccc4)c3=O)cc(Cl)cc2o1 [Example 111, 6-Chloro-N-{4-[(1,5-dimethyl-3-oxo-2-phenyl-2,3-dihydro-1H-pyrazol-4-yl)amino]-2,2-dimethyl-4-oxobutyl}-2-ethyl-1,3-benzoxazole-4-carboxamide] | 44 | 90
22 | COc1ccc(Cl)cc1C(=O)NCC(C)(C)C(O)C(=O)Nc1c(C)n(C)n(-c2ccccc2)c1=O (stereo not drawn) [Example 112] | 150 | 680
23 | CCOc1ncc(Cl)cc1C(=O)NCC(C)(C)CC(=O)Nc1c(COC)n(C)n(-c2ccccc2)c1=O [Example 117, 5-Chloro-2-ethoxy-N-(4-{[5-(methoxymethyl)-1-methyl-3-oxo-2-phenyl-2,3-dihydro-1H-pyrazol-4-yl]amino}-2,2-dimethyl-4-oxobutyl)pyridine-3-carboxamide] | 41 | 110
24 | CCOc1cc(F)c(Cl)cc1NC(=O)CC(C)(C)CC(=O)Nc1c(COC)n(C)n(-c2ccccc2)c1=O [Example 119, N-(5-Chloro-2-ethoxy-4-fluorophenyl)-N′-[5-(methoxymethyl)-1-methyl-3-oxo-2-phenyl-2,3-dihydro-1H-pyrazol-4-yl]-3,3-dimethylpentanediamide] | 95 | 270
